Measurements from paper PMC9826346, “One‐Pot Chemoenzymatic Synthesis of Microviridin Analogs Containing Functional Tags” (Chembiochem, 2022).
Bridge positions count the residues as written; N and C are the ends. Peptide text beside a SMILES is read from it. * marks the point of attachment. Biotin = O=C1N[C@H]2[C@H](CS[C@H]2CCCCC(=O)*)N1; Dansyl = CN(C)c1cccc2c(S(=O)(=O)*)cccc12; Propargyl = C#CC*

Legend:
[1] = biological target: bovine trypsin (Bos taurus, UniProt P00760); test: biochemical
Method: (§1) Protease inhibition assay: Microviridins were checked for their inhibitory activity against trypsin and elastase. Therefore, microviridin concentrations of 0.01 μM, 0.1 μM, 1 μM, 10 μM and 100 μM were tested. A sample without microviridin was used as control. As substrates N α‐Benzoyl‐DL‐arginine 4‐nitroanilide hydrochloride (BAPNA) was used for the trypsin assay and N‐Succinyl‐Ala‐Ala‐Ala‐p‐nitroanilide (Suc‐AAA‐pNA) for the elastase assays. The trypsin assay was performed with 16.7 μg/mL (approximately 42.7 U/mL) bovine trypsin (Carl Roth (Germany)) and 108.5 μg/mL BAPNA (Sigma‐Aldrich (Germany)) in 50 mM Tris‐HCl, 20 mM CaCl2, 0.5 % DMSO, pH 7.5. The elastase assay was performed with 50 μg/mL (250 mU/mL) porcine pancreas elastase (Sigma‐Aldrich (Germany) and 500 μg/mL Suc‐AAA‐pNA (Sigma‐Aldrich (Germany)) in 50 mM Tris‐HCl, 20 mM CaCl2, pH 7.5. All microviridins were dissolved in water to a concentration of 500 μM except of tricyclic MvB_CP_N(dansyl), which was dissolved in water containing 10 % DMSO. Before adding the substrate, each enzyme was incubated for 5 min with the respective inhibitor at room temperature. Afterwards, the substrate was added, and the assays were incubated for 15 min (elastase assay) and 30 min (trypsin assay) at 37 °C. The enzymatic activity was measured spectrophotometrically (Varioscan Flash, Thermo Scientific) at 410 nm. The assays were done twice for each sample. IC50 values were calculated using the Quest Graph™ IC50 Calculator.[21]

[2] = biological target: porcine pancreas elastase (Sus scrofa, UniProt P00772); test: biochemical
porcine pancreas elastase, sequence (P00772 27-266): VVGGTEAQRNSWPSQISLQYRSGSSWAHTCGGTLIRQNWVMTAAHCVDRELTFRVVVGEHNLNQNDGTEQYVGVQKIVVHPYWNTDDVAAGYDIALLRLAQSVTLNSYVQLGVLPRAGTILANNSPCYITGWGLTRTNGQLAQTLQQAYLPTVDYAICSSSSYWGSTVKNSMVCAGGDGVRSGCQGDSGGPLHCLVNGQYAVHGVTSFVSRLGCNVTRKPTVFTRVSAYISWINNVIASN
Method: as §1

[3] = tested on: Daphnia; details: microcrustaceans of the genus Daphnia; cited from earlier work
Source text: While the bioactivity and mode of action against mammalian serine proteases is well investigated for microviridins[[2a], [8]] and plesiocin,[9] their ecological roles and native targets remain elusive. […] However, neither specific protease targets could be identified, nor could a mode of action be specified. One hypothesis is based on the depletion of the amino acid pool essential for ...

[4] = biological target: trypsin; details: read-out: KD for the interaction of trypsin and microviridin J; cited from earlier work
Source text: Naturally, microviridins act as competitive inhibitors that bind tightly to their corresponding proteases in a substrate‐like manner, for which turnover is excluded. […] Therefore, the chemical probes that show protease inhibition in the range of the unmodified microviridin derivatives could be expected to work as molecular tools. However, since the activity of dansylated microviridin B is clearly compromised (Table 1), the compound's affinity for elastase might not be strong enough for diagnos ...

bovine trypsin, sequence (P00760 24-246): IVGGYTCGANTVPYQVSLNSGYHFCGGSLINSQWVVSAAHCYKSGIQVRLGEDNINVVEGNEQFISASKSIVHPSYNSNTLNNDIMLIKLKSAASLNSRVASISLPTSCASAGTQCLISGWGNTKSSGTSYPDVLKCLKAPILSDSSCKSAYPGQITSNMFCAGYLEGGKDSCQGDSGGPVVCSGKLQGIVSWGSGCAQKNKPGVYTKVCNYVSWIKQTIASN

| Molecule | IC50 [1] [nM] | IC50 [2] [nM] | other results |
| --- | --- | --- | --- |
| C#CCOc1ccc(C[C@H](N)C(=O)N[C@H](C(=O)N[C@@H](CO)C(=O)N[C@@H]2C(=O)N[C@@H](CCCNC(=N)N)C(=O)N[C@H]3CCCCNC(=O)CC[C@@H](C(=O)N[C@@H](Cc4c[nH]c5ccccc45)C(=O)O)NC(=O)[C@@H]4CCC(=O)OC[C@H](NC(=O)[C@@H]5CCCN5C(=O)[C@H](Cc5ccc(O)cc5)NC3=O)C(=O)N[C@@H](CC(=O)O[C@@H]2C)C(=O)N[C@@H](Cc2c[nH]c3ccccc23)C(=O)N4)[C@@H](C)CC)cc1 [MvJ_CP_N(Prop)cy3 (3)] (H-Y(Propargyl)ISTRKYPSDWEEW-OH; ester 4-10, 9-12; lactam 6-13) | 1640 ± 120 | – | – |
| CC(C)C[C@@H]1NC(=O)[C@@H](NC(=O)[C@@H](NC(=O)CNC(=O)[C@@H](N)Cc2ccccc2)[C@@H](C)O)[C@@H](C)OC(=O)C[C@@H]2NC(=O)[C@@H]3COC(=O)CC[C@H](NC(=O)[C@H](Cc4c[nH]c5ccccc45)NC2=O)C(=O)N[C@H](C(=O)N[C@@H](Cc2ccc(O)cc2)C(=O)O)CCC(=O)NCCCC[C@H](NC1=O)C(=O)N[C@@H](Cc1ccc(O)cc1)C(=O)N1CCC[C@H]1C(=O)N3 [MvB_CPcy3 (4)] (H-FGTTLKYPSDWEEY-OH; ester 4-10, 9-12; lactam 6-13) | – | 330 ± 20 | – |
| CC[C@H](C)[C@H](NC(=O)[C@@H](N)CCCCNC(=O)CCCC[C@@H]1SC[C@@H]2NC(=O)N[C@@H]21)C(=O)N[C@@H](CO)C(=O)N[C@@H]1C(=O)N[C@@H](CCCNC(=N)N)C(=O)N[C@H]2CCCCNC(=O)CC[C@@H](C(=O)N[C@@H](Cc3c[nH]c4ccccc34)C(=O)O)NC(=O)[C@@H]3CCC(=O)OC[C@H](NC(=O)[C@@H]4CCCN4C(=O)[C@H](Cc4ccc(O)cc4)NC2=O)C(=O)N[C@@H](CC(=O)O[C@@H]1C)C(=O)N[C@@H](Cc1c[nH]c2ccccc12)C(=O)N3 [MvJ_CP_N(Bio)cy3 (2)] (H-K(Biotin)ISTRKYPSDWEEW-OH; ester 4-10, 9-12; lactam 6-13) | 3530 ± 300 | – | – |
| CC[C@H](C)[C@H](N)C(=O)N[C@@H](CO)C(=O)N[C@@H]1C(=O)N[C@@H](CCCNC(=N)N)C(=O)N[C@H]2CCCCNC(=O)CC[C@@H](C(=O)N[C@@H](Cc3c[nH]c4ccccc34)C(=O)O)NC(=O)[C@@H]3CCC(=O)OC[C@H](NC(=O)[C@@H]4CCCN4C(=O)[C@H](Cc4ccc(O)cc4)NC2=O)C(=O)N[C@@H](CC(=O)O[C@@H]1C)C(=O)N[C@@H](Cc1c[nH]c2ccccc12)C(=O)N3 [MvJ_CPcy3 (1)] (H-ISTRKYPSDWEEW-OH; ester 3-9, 8-11; lactam 5-12) | 1090 ± 90 | – | – |
| CC(C)C[C@@H]1NC(=O)[C@@H](NC(=O)[C@@H](NC(=O)CNC(=O)[C@H](Cc2ccccc2)NS(=O)(=O)c2cccc3c(N(C)C)cccc23)[C@@H](C)O)[C@@H](C)OC(=O)C[C@@H]2NC(=O)[C@@H]3COC(=O)CC[C@H](NC(=O)[C@H](Cc4c[nH]c5ccccc45)NC2=O)C(=O)N[C@H](C(=O)N[C@@H](Cc2ccc(O)cc2)C(=O)O)CCC(=O)NCCCC[C@H](NC1=O)C(=O)N[C@@H](Cc1ccc(O)cc1)C(=O)N1CCC[C@H]1C(=O)N3 [MvB_CP_N(Dansyl)cy3 (6)] (Dansyl-FGTTLKYPSDWEEY-OH; ester 4-10, 9-12; lactam 6-13) | – | 28000 ± 7170 | – |
| CC(C)C[C@@H]1NC(=O)[C@@H](NC(=O)[C@@H](NC(=O)CNC(=O)[C@H](Cc2ccccc2)NC(=O)[C@@H](N)CCCCNC(=O)CCCC[C@@H]2SC[C@@H]3NC(=O)N[C@@H]32)[C@@H](C)O)[C@@H](C)OC(=O)C[C@@H]2NC(=O)[C@@H]3COC(=O)CC[C@H](NC(=O)[C@H](Cc4c[nH]c5ccccc45)NC2=O)C(=O)N[C@H](C(=O)N[C@@H](Cc2ccc(O)cc2)C(=O)O)CCC(=O)NCCCC[C@H](NC1=O)C(=O)N[C@@H](Cc1ccc(O)cc1)C(=O)N1CCC[C@H]1C(=O)N3 [MvB_CP_N(Bio)cy3 (5)] (H-K(Biotin)FGTTLKYPSDWEEY-OH; ester 5-11, 10-13; lactam 7-14) | – | 1240 ± 640 | – |
| microviridin J | – | – | Effect on Daphnia [3]: lethal molting disruption; Kd [4]: 680 nM |
